According to article PMC9564123, “Identification of Monobenzone as a Novel Potential Anti-Acute Myeloid Leukaemia Agent That Inhibits RNR and Suppresses Tumour Growth in Mouse Xenograft Model” (Cancers, 2022):

Legend:
[1] = target: T1, recombinant RNR (RRM1 + RRM2) (Homo sapiens, UniProt P31350); assay: recombinant RNR activity assay, CDP to dCDP conversion; format: biochemical
T1 construct: with Ribonucleoside-diphosphate reductase large subunit
T1 sequence (P31350 1-389): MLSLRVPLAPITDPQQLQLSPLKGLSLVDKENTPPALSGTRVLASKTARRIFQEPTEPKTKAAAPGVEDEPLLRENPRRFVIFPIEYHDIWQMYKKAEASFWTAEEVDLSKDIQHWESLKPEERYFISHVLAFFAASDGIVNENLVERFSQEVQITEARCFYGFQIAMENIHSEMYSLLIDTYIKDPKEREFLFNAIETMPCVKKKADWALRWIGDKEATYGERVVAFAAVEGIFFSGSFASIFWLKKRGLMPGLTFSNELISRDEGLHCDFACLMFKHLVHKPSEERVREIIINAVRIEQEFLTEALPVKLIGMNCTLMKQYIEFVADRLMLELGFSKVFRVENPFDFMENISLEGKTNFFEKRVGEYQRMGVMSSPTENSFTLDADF
T1 sequence (P23921 1-792 partner): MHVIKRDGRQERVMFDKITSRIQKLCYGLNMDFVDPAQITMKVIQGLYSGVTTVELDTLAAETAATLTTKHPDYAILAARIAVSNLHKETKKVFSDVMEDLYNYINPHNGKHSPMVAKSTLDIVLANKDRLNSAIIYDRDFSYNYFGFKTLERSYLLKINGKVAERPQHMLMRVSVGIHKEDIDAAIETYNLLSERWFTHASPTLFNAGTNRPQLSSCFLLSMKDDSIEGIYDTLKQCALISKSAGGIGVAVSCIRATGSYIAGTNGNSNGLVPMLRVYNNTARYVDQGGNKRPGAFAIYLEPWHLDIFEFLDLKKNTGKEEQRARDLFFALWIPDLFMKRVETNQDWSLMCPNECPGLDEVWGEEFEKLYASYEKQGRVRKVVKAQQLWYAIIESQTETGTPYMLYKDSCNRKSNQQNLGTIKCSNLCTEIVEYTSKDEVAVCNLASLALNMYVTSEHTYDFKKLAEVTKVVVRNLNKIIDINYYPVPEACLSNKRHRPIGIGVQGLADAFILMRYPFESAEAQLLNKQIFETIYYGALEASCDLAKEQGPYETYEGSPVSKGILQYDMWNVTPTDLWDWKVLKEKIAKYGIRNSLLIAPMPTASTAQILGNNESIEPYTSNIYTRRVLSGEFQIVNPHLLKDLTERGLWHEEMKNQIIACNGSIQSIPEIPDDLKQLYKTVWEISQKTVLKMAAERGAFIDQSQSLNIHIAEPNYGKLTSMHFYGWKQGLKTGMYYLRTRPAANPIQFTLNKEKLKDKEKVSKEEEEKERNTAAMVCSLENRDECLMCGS

[2] = target: T2, RRM2 (Homo sapiens, UniProt P31350); assay: microscale thermophoresis; format: binding
T2 construct: recombinant purified RRM2, lysine-labelled for MST
T2 sequence (P31350 1-389): T1 sequence (P31350 1-389)

IC50 [1] | Kd [2] | SMILES
29.8 µM | – | NC(=O)NO [HU, hydroxyurea, reference compound]
0.25 µM | 22.5 ± 14 µM | Oc1ccc(OCc2ccccc2)cc1 [MB, monobenzone]
